Legend:
[1] = BODIPY-TR-cadaverine (BC) fluorescence displacement assay for LPS binding affinity; details: purified re-synthesized leads; half-maximal effective displacement of probe; 50 mM Tris buffer, pH 7.4; read-out: Binding affinity (BC displacement) ED50 value
Description: Quantitative Estimation of LPS Binding Affinity. The relative binding affinities of the entire library of analogs with a recently-described high-throughput fluorescence based displacement assay, is examined using BODIPY-TR cadaverine (BC).^81;82 Results are reported as half-maximal effective displacement of probe (ED50). In all experiments, Polymyxin B (PMB), a decapeptide antibiotic, known to bind and neutralize LPS,^83–86 is used as a reference compound.
Rapid-throughput Fluorescence Displacement Assay for quantifying binding affinities to LPS. The BODIPY-TR-cadaverine (BC; (5-(((4-(4,4-difluoro-5-(2-thienyl)-4-bora-3a,4a-diaza-s-indacene-3-yl) phenoxy)acetyl)amino)pentylamine, hydrochloride; obtained from Molecular probes, Inc., Eugene, Oreg.) displacement assay to quantify the affinities of binding of compounds to LPS has been described in detail recently.^81 This assay is performed in a rapid-throughput format as follows: the first column (16 wells) of a Corning Nonbinding Surface 384-well flat-bottom black fluorescence microplate contain 15 test compounds plus polymyxin B, all at 5 mM in DMSO, and are serially diluted two-fold in 50 mM Tris buffer, pH 7.4, across the remaining 23 columns, achieving a final dilution of 0.596 nM in a volume of 40 μl. Polymyxin B (PMB), a peptide antibiotic known to bind and neutralize LPS^95 serve as the positive control and reference compound for every plate, enabling the quantitative assessment of repeatability and reproducibility (CV and Z′ factors) for the assay. Automated liquid handling is performed on a Precision 2000 automated microplate pipetting system, programmed using the Precision Power software, Bio-Tek Instruments Inc., VT, USA.

[2] = test system: murine macrophage J774A.1 cells; test: Nitric oxide assay (Griess): inhibition of LPS-induced NO production; assay type: cell-based; details: purified re-synthesized leads; 10 ng/ml LPS stimulation, 16 h; read-out: NO inhibition in murine J774 cells IC50 value
Method: Assessment of neutralization of LPS toxicity: NO inhibition activity. Murine monocytes (J774.A1 cells) produce measurable quantities of NO upon exposure to LPS and provide a high-throughput and validated model for the rapid and quantitative assessment of compounds in neutralizing the toxicity of LPS.^81;82;94 Compounds that neutralize LPS inhibit NO production in a dose-dependent manner from which 50% inhibitory concentrations (IC50) were determined (FIG. 4). The analogs determined to have the highest affinity in the BC-binding assay are then assayed in this NO inhibition assay (Table 1). Results in this assay parallel those in the binding assay (FIG. 5). Nitric Oxide Assay. Nitric oxide production is measured as total nitrite in murine macrophage J774A.1 cells using the Griess assay^96 as described previously.^94 J774A.1 cells are plated at ˜10^5/ml in a volume of 40 μl/well, in 384-well, flat-bottomed, cell culture treated microtiter plates and subsequently stimulated with 10 ng/ml lipopolysaccharide (LPS). Concurrent to LPS stimulation, serially diluted concentrations of test compounds are added to the cell medium and left to incubate overnight for 16 h. Polymyxin B is used as reference compound in each plate. Positive- (LPS stimulation only) and negative-controls (J774A. 1 medium only) are included in each experiment. Nitrite concentrations are measured by adding 40 μl of supernatant to equal volumes of Griess reagents ([…]; 0.1% NED solution in ddH2O and 1% sulfanilamide, 5% phosphoric acid solution in ddH2O) and incubating for 15 minutes at room temperature in the dark. Absorbance at 535 nm is measured using a Molecular Devices Spectramax M2 multifunction plate reader (Sunnyvale, Calif.). Nitrite concentrations are interpolated from standard curves obtained from serially diluted sodium nitrite standards.

Row | Compound | EC50 [1] [µM] | IC50 [2] [µM]
1 | CCCCCCCCCCCCCCCCCCNCCC(=O)NCC(=O)NCCCN [compound 1142] | 2420 | 5.26
2 | CCCCCCCCCCCCCCCCCCNCC(=O)NCC(=O)NCCCCCN [compound 1227] | 28.2 | 3.27
3 | CCCCCCCCCCCCCCCCCCNCC(=O)NCCCN [compound 2322] | 3.8 | 5.56
4 | CCCCCCCCCCCCCCCCCCNCC(=O)NCCCCCN [compound 2325] | 8.74 | 3.96
5 | CCCCCCCCCCCCCCCCCCNCC(=O)NCC(=O)NCCOCCN [compound 1047] | 14 | 11.5
6 | CCCCCCCCCCCCCCCCCCNCCC(=O)NC(Cc1cnc[nH]1)C(=O)NCCOCCN (centres unmarked) [compound 1037] | 3.17 | 1.88
7 | CCCCCCCCCCCCCCCCCCNCC(=O)NC(Cc1cnc[nH]1)C(=O)NCCCCCN (centres unmarked) [compound 1212] | 12.1 | 2.04
8 | CCCCCCCCCCCCCCCCCCNCCCC(=O)NCC(=O)NCCCCCN [compound 1237] | 9.77 | 3.22
9 | CCCCCCCCCCCCCCCCCCNCCCC(=O)NC(Cc1cnc[nH]1)C(=O)NCCOCCN (centres unmarked) [compound 1042] | 5.38 | 1.86
10 | CCCCCCCCCCCCCCCCCCNCCC(=O)NC(Cc1ccccc1)C(=O)NCCCN (centres unmarked) [compound 1097] | 4.13 | 8.7
11 | CCCCCCCCCCCCCCCCCCNCCCC(=O)NC(Cc1ccccc1)C(=O)NCCOCCN (centres unmarked) [compound 1012] | 7.68 | 3.78
12 | CCCCCCCCCCCCCCCCCCNCCC(=O)NCCCN [compound 2323] | 9.92 | 7.49
13 | CCCCCCCCCCCCCCCCCCNCCCC(=O)NCCOCCN [compound 2330] | 5.73 | 5
14 | CCCCCCCCCCCCCCCCCCNCCC(=O)NC(Cc1ccccc1)C(=O)NCCCCCN (centres unmarked) [compound 1187] | 3850 | 4.88
15 | CCCCCCCCCCCCCCCCCCNCCC(=O)NCCCCCN [compound 2327] | 4.03 | 1.08
16 | CCCCCCCCCCCCCCCCCCNCCCC(=O)NC(Cc1ccccc1)C(=O)NCCCN (centres unmarked) [compound 1102] | 5.75 | 3.42
17 | CCCCCCCCCCCCCCCCCCNCCCC(=O)NC(Cc1ccccc1)C(=O)NCCCCCN (centres unmarked) [compound 1192] | 7.51 | 4.8
18 | CCCCCCCCCCCCCCCCCCNCCC(=O)NCC(=O)NCCCCCN [compound 1232] | 11.2 | 4.61
19 | CCCCCCCCCCCCCCCCCCNCCC(=O)NC(Cc1ccccc1)C(=O)NCCOCCN (centres unmarked) [compound 1007] | 2.54 | 2.79

More lines, in order of falling EC50 [1], values ahead:

Row | EC50 [1] [µM] | IC50 [2] [µM] | Compound
20 | 18.7 | 0.9 | CCCCCCCCCCCCCCCCCCNCCCC(=O)NC(Cc1cnc[nH]1)C(=O)NCCCCCN (centres unmarked) [compound 1222]
21 | 14.2 | 1.84 | CCCCCCCCCCCCCCCCCCNCCC(=O)NCC(=O)NCCOCCN [compound 1052]
22 | 13.1 | 1.64 | CCCCCCCCCCCCCCCCCCNCC(=O)NC(Cc1cnc[nH]1)C(=O)NCCOCCN (centres unmarked) [compound 1032]
23 | 12.4 | 17.6 | CCCCCCCCCCCCCCCCCCNCC(=O)NC(Cc1ccccc1)C(=O)NCCOCCN (centres unmarked) [compound 1002]
24 | 12.2 | 9.73 | CCCCCCCCCCCCCCCCCCNCC(=O)NCCOCCN [compound 2326]
25 | 10.8 | 3.33 | CCCCCCCCCCCCCCCCCCNCCCC(=O)NCC(=O)NCCOCCN [compound 1057]
26 | 9.16 | 6.54 | CCCCCCCCCCCCCCCCCCNCCC(=O)NCCOCCN [compound 2328]
27 | 8.8 | 6.74 | CCCCCCCCCCCCCCCCCCNCC(=O)NC(Cc1ccccc1)C(=O)NCCCN (centres unmarked) [compound 1092]
28 | 7.61 | 2.07 | CCCCCCCCCCCCCCCCCCNCCCC(=O)NCCCCCN [compound 2329]
29 | 6.86 | 8.06 | CCCCCCCCCCCCCCCCCCNCCC(=O)NC(Cc1cnc[nH]1)C(=O)NCCCN (centres unmarked) [compound 1127]
30 | 6.61 | 7.94 | CCCCCCCCCCCCCCCCCCNCC(=O)NCC(=O)NCCCN [compound 1137]
31 | 6.21 | 4.87 | CCCCCCCCCCCCCCCCCCNCCCC(=O)NCCCN [compound 2324]
32 | 6.14 | 6.57 | CCCCCCCCCCCCCCCCCCNCCCC(=O)NCC(=O)NCCCN [compound 1147]
33 | 4.87 | 6.9 | CCCCCCCCCCCCCCCCCCNCC(=O)NC(Cc1cnc[nH]1)C(=O)NCCCN (centres unmarked) [compound 1122]
34 | 3.01 | 1.83 | CCCCCCCCCCCCCCCCCCNCCCC(=O)NC(Cc1cnc[nH]1)C(=O)NCCCN (centres unmarked) [compound 1132]
